According to BindingDB's records for doi:10.1021/jm960626t (Dupont Pharmaceuticals, 1997):
Counter-ions that a name gives are not always drawn.

target: Integrin alpha-IIb/beta-3 (Homo sapiens, UniProt P08514+P05106); assay: Inhibition of human platelet aggregation induced by ADP
Sequence (P05106 27-788 limits assumed): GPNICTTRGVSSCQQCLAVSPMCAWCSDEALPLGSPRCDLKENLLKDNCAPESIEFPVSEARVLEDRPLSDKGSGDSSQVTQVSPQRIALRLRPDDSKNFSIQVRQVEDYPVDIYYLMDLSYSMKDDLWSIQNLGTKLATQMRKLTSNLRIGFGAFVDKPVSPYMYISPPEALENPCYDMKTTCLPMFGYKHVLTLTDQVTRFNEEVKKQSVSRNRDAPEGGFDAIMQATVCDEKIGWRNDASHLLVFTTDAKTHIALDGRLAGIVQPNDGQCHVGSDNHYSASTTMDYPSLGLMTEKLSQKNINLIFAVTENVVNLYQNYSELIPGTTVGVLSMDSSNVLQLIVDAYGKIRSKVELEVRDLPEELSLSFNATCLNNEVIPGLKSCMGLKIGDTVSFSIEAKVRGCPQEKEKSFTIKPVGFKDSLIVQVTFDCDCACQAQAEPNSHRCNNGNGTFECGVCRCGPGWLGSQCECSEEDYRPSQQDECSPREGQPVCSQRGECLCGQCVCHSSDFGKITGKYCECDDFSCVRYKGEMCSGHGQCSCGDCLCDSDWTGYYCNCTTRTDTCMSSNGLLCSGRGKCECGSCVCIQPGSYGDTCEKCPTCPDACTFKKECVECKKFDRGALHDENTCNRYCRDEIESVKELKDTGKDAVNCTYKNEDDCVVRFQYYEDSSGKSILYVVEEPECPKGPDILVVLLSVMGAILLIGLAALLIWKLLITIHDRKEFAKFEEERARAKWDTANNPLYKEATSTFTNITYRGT
Sequence (P08514 32-887 limits assumed): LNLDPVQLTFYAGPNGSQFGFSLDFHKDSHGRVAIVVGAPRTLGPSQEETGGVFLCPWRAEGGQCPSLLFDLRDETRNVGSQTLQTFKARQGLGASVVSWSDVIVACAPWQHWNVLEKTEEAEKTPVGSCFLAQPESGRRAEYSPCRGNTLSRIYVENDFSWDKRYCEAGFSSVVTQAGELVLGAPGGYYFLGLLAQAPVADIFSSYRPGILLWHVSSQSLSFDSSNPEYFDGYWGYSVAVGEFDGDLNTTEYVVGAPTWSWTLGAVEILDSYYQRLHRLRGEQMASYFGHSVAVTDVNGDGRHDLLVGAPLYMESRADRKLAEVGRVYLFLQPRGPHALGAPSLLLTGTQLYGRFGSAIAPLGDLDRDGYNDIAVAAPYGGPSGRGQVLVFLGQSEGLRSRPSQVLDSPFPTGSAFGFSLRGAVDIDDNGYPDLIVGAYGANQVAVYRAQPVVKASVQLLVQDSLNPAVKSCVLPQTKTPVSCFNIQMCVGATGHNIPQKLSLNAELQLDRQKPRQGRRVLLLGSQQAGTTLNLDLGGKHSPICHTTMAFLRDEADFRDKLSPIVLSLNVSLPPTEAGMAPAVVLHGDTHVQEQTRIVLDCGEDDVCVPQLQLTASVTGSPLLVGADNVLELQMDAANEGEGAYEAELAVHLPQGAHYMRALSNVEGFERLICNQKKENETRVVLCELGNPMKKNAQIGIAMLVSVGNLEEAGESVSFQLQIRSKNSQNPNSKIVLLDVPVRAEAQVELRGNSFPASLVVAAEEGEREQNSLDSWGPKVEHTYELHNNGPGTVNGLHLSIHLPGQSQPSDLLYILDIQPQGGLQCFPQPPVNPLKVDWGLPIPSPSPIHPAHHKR
Sequence (P08514 891-1039 limits assumed): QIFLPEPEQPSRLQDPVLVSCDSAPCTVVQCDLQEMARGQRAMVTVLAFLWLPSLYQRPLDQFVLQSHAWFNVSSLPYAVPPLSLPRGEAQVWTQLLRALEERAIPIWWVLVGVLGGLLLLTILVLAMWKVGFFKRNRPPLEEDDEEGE

SMILES	IC50 [µM]
N=C(N)c1ccc(C2=NO[C@@H](CC(=O)NCCC(=O)O)C2)cc1	0.86
O=C(NC(C(=O)O)C1CC(c2ccc(OCCC3CCNCC3)cc2)=NO1)OCc1ccccc1 (configuration not stated) [Benzyloxycarbonylamino-{3-[4-(2-piperidin-4-yl-ethoxy)-phenyl]-4,5-dihydro-isoxazol-5-yl}-acetic acid]	23
O=C(O)CCC1CC(c2ccc(OCC3CCNCC3)cc2)=NO1 (configuration not stated) [3-{3-[4-(Piperidin-4-ylmethoxy)-phenyl]-4,5-dihydro-isoxazol-5-yl}-propionic acid]	18
O=C(O)CC1CC(c2ccc(OCCC3CCNCC3)cc2)=NO1 (configuration not stated) [{3-[4-(2-Piperidin-4-yl-ethoxy)-phenyl]-4,5-dihydro-isoxazol-5-yl}-acetic acid]	8.3
O=C(O)CCNC(=O)CC1CC(CCC2CCNCC2)=NO1 (configuration not stated) [3-{2-[3-(2-Piperidin-4-yl-ethyl)-4,5-dihydro-isoxazol-5-yl]-acetylamino}-propionic acid]	0.63
O=C(O)CCNC(=O)CC1CC(CC2CCNCC2)=NO1 (configuration not stated) [3-[2-(3-Piperidin-4-ylmethyl-4,5-dihydro-isoxazol-5-yl)-acetylamino]-propionic acid]	> 100
N=C(N)c1ccc(C2=NO[C@H](CC(=O)NCCC(=O)O)C2)cc1 [3-{2-[(S)-3-(4-Carbamimidoyl-phenyl)-4,5-dihydro-isoxazol-5-yl]-acetylamino}-propionic acid; TFA]	0.06
